# Test results as given in US20090055940A1, “ZEBRAFISH MODEL OF MLL LEUKEMOGENESIS” (priority 2006, published 2009).
# Entries after “also recorded” stand apart in the source; their conditions may differ.
# Columns and labels:
# [1] = tested on: zebrafish mll mRNA (exon 2-intron 2 splice junction); assay: RT-PCR of zebrafish mll transcript splicing after morpholino knockdown; type: in vivo; conditions: embryos injected at 1-2 cell stage with 16 ng, products sequenced
# Method: (§1) A detailed characterization of the role of wild-type mll in the development of the zebrafish hematopoietic system was also performed. The morpholino knockdown strategy (Paffett-Lugassy et al. (2005) Methods Mol. Med., 105:171-98) was employed to characterize the phenotype of loss of mll and determine whether zebrafish mll depletion is associated with a phenotype resembling that in mammals. […] The construct was obtained from Gene Tools, LLC (Philomath, Oreg.). Target mRNA sequence was 5′-[…]gtaaacaaattctctaaattattgt-3′ (SEQ ID NO: 38; Exon 2 is capitalized; intron 2 is lower case; underline indicates 25-base sequence encompassed by morpholino). The MO E2I2 sequence was 5′-tagagaatttgtttacCTATTGACG-3′ (SEQ ID NO: 39). The normal transcript splicing is shown by the grey lines in FIG. 11A. The aberrant splicing of exon 1 to exon 3 is shown by the black lines in FIG. 11A and the thick black line in FIG. 11A indicates a second form of aberrant splicing due to failure to splice out intron 2. A 2 mM (16 ng/nl) MO E2I2 stock solution was prepared in dH2O and diluted in Danieau Solution to the desired concentration.
# Wild type male and female adults were bred, fertilized eggs collected, and 100 embryos at the 1-2 cell stage were injected with 16 ng of MO E2I2. […]
# zebrafish embryos = assay: Phenotype of zebrafish embryos after mll depletion (DIC microscopy of live embryos); type: in vivo
# Method: as §1
# Wild type male and female adults were bred, fertilized eggs collected, and 100 embryos at the 1-2 cell stage were injected with 16 ng of MO E2I2. Control uninjected embryos (n=100) and injected embryos were raised in petri dishes in E3 embryo medium (Paffett-Lugassy et al. (2005) Methods Mol. Med., 105:171-98) to the desired age. PTU (1-phenyl-2-thiourea) was applied at 24 hpf as described (Herbomel et al. (2005) Methods Mol. Med., 105:199-214) to inhibit melanin synthesis. To harvest embryos for RNA, 20 embryos were collected in 1.5 ml eppendorf tubes, E3/PTU was removed, embryos were anesthetized with tricaine, tricaine was removed, 100% methanol was added and tubes were placed at −20° C. RNA was prepared using RNeasy (Qiagen) and RT-PCR was performed using SuperScript III One Step kit (Invitrogen) with sense and antisense primers 5′-[…]-3′ (SEQ ID NO: 40) and 5′-[…]-3′ (SEQ ID NO: 41). Knockdown of properly spliced transcript and production of two aberrant transcripts shown in the schematics of FIG. 11B was confirmed by sequencing the products.
# DIC images of representative live embryos were taken using Leica DMRBE microscope with 4× objective and captured using Image Pro. […] By 48 hpf, erythroid cells are seen in heart/ventral anterior yolk sac of control (filled black arrow in FIG. 11C). In contrast, erythroid cells are barely visible in morphant (unfilled black arrow), and morphant has smaller eyes (arrow) and persistent hindbrain abnormality (arrow) (FIG. 11C).
# [2] = 48 hpf, 16 ng injected, vs un-injected control embryos
substance,measurement,setting,value
5′-tagagaatttgtttacCTATTGACG-3′ (antisense TAGAGAATTTGTTTACCTATTGACG; all phosphorodiamidate morpholino (PMO)) [MO E2I2],effect on mll transcript splicing,[1],effectively disrupted; also recorded: inhibited proper splicing and resulted in production of two different aberrantly spliced mll mRNAs and reduction of the normal transcript
same,morphant phenotype by 28 hpf,"zebrafish embryos; 28 hpf, 16 ng injected, vs un-injected control embryos",aberrant protrusion at the tip of the head and enlarged hindbrain ventricle
same,erythroid cells in the heart and at the ventral yolk sac by 48 hpf,zebrafish embryos; [2],substantially less erythroid cells
same,"other morphant features (eyes, hindbrain)",zebrafish embryos; [2],smaller eyes and a prominent hindbrain abnormality
same,viability of morphant embryos,zebrafish embryos; embryos injected with 16 ng at 1-2 cell stage,viable
same,"embryos exhibiting a phenotype that included hematopoietic and neuronal defects, small size, and delayed development",zebrafish embryos; of the 100 embryos injected with 16 ng at 1-2 cell stage,Approximately 60%
